Source: patent publication US20120065265A1, “ALPHA-2-DELTA LIGANDS FOR NON-RESTORATIVE SLEEP” (Pfizer Inc., priority 2006, published 2012)

Tested on: subjects with non-restorative sleep (NRS)
Assay: Randomized, double-blind, placebo- and active-controlled 4-way crossover study in an NRS population: efficacy
Type: in vivo, human
Conditions: for RSQ-W Total Score, comparison with placebo: one-sided alpha 0.05; for RSQ-W Total Score, LS Mean (primary endpoint): po, 336 h
Protocol: STUDY DESIGN. […] Subjects were subsequently crossed over 3 times to receive the remaining treatments, each for 2 weeks followed by a 1—week washout period. […] Each treatment was administered at least 2 hours after a meal. DIAGNOSIS AND MAIN CRITERIA FOR INCLUSION. Subjects selected for the study were male and/or nonpregnant, nonlactating females between the ages of 18-64 years, inclusive, who regularly (≧3 times/week) awoke un-restored or un-refreshed for at least the previous 3 months, causing significant distress or impairment in social, occupational, or other important areas of functioning during the daytime.
EFFICACY & SAFETY EVALUATIONS. The primary endpoint in this study was the Restorative Sleep Questionnaire—Weekly (RSQ-W) Total Score at the end of each 2-week treatment period. The RSQ-W, below, is a patient-reported outcome measure of morning refreshment over the past week in which larger values of the total score correspond to greater refreshment. All remaining efficacy/outcomes endpoints were considered secondary. Safety data, including adverse event information, clinical laboratory values, physical examination, vital signs, and electrocardiograms (ECGs) were collected during the study.
STATISTICAL METHODS. The Full Analysis Set was used in the analyses of all efficacy/outcome endpoints. […] The Per-Protocol Analysis Set was used for sensitivity analyses of certain efficacy/outcome endpoints as appropriate. […] Protocol deviations included the major inclusion/exclusion criteria assessed prior to randomization and major protocol deviations or violations assessed after randomization. […] The Safety Analysis Set was used in the analyses of the safety data and consisted of all randomized subjects who took any study medication.
Each comparison was done at the nominal alpha=0.05 level (one-sided), recognizing that the probability of committing at least one Type I error could be greater than 0.05 but no more than 0.15.
MODEL-BASED SUMMARY. The primary endpoint in this study was the RSQ-W Total Score at the end of each 2-week treatment period. This endpoint was analyzed using a linear model including sequence, period, and treatment as fixed factors, and subject within sequence and within-subject error as random factors. First-order carryover effects were explored and tested at the 10% nominal level of significance. Pair-wise comparisons were made based on the final linear model. The point estimates and 90% confidence intervals (Cis) for the placebo-adjusted treatment effects were constructed using the least squares (LS) means and appropriate standard errors.
DESCRIPTIVE SUMMARY. For each item and Total Score of the RSQ-W, descriptive statistics were provided by treatment and visit.
For secondary/exploratory purposes, certain secondary efficacy endpoints were analyzed with model-based statistical procedures. […] All comparisons are considered secondary/exploratory, and each was done at the nominal alpha=0.05 level (one-sided). No multiple comparison adjustment was made. All secondary efficacy endpoints were summarized descriptively. For secondary/exploratory purposes, appropriate model-based statistical procedures similar to those for the primary endpoint were used to analyze the following scales and subscales: • Restorative Sleep Questionnaire—Daily (RSQ-D, below): weekly averages of Total Score; • Daytime Consequences of Sleep Questionnaire (DCSQ): Total Score; • Multidimensional Assessment of Fatigue (MAF): Global Fatigue Index, Impact Subscale; • Subjective Sleep Questionnaire (SSQ): Sleep Quality; • Sheehan Disability Scale (SDS): Total Score; • SF-36v2: Mental Component Summary, Physical Component Summary, Vitality Subscale; • Clinical Global Impression of Change (CGIC): Status Score; and • Patient Global Impression of Change (PGIC): Status Score.

[1] = COMPOUND A doses (25 mg and 50 mg)

Q: With `C[C@H]1CC(CN)(CC(=O)O)C[C@@H]1C` [COMPOUND A, (3S,4S)-(1-aminomethyl-3,4-dimethyl-cyclopentyl)-acetic acid] as the compound, how does the “RSQ-D Total Score at Week 2” value (COMPOUND A 25 mg) read?
A: 61.5

Q: And the “RSQ-W Total Score, comparison with placebo” value (COMPOUND A 25 mg)?
A: statistically significantly different from placebo

Q: What about the “Evening Functioning Scale” value (COMPOUND A dose groups, similar level of functioning as with zolpidem) of the same compound?
A: better functioning than while taking placebo

Q: What about the “MAF Impact Subscale score at Week 2, comparison with placebo” value [1] of the same compound?
A: not statistically significantly different from placebo

Q: What about the “RSQ-D Total Score at Week 2, comparison with placebo” value [1] of the same compound?
A: no statistically significant differences from placebo

Q: And the “RSQ-W Total Score, LS Mean (primary endpoint)” value (25 mg)?
A: 63.6

Q: And the “RSQ-W Total Score, LS Mean (primary endpoint)” value (50 mg)?
A: 62.5

Q: What about the “Treatment effect relative to placebo on the primary endpoint, the RSQ-W (conclusion)” value (subjects with non-restorative sleep, no dose stated) of the same compound?
A: positive treatment effect relative to placebo

Q: With `Cc1ccc(-c2nc3ccc(C)cn3c2CC(=O)N(C)C)cc1` [zolpidem, reference compound] as the compound, how does the “RSQ-W Total Score, comparison with placebo” value (zolpidem 10 mg) read?
A: not statistically significantly different from placebo
